From patent US10208034B2, “Quinoline derivative” (ONO PHARMACEUTICAL CO., LTD., priority 2014, dated 2019) come the findings set out here.

The target of this experiment is T1, Axl enzyme (Homo sapiens, UniProt P30530).
T1 sequence (P30530 26-894): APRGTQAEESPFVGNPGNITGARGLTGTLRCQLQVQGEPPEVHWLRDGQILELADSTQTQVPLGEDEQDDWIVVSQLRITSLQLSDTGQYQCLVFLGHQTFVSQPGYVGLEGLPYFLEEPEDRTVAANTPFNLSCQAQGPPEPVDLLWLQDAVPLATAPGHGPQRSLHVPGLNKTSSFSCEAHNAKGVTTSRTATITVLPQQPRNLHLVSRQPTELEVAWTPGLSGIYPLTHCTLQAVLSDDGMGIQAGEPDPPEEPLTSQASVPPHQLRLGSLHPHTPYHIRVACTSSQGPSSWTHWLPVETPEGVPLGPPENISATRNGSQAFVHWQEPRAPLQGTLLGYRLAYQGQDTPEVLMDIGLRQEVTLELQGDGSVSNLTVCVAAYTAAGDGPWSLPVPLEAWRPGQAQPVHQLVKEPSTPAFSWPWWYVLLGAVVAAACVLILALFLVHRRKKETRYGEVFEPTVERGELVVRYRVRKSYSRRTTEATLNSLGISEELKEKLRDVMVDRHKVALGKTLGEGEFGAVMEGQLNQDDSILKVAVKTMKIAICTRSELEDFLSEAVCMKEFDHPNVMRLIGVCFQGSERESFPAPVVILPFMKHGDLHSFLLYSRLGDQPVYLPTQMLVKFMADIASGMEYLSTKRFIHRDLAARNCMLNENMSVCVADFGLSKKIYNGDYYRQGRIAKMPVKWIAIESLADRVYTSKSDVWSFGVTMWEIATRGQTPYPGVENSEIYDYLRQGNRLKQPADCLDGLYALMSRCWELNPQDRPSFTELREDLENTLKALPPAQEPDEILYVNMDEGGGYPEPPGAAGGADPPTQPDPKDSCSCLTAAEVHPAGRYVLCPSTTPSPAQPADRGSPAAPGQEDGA
Nature of the experiment: Measurement of Axl inhibitory activity (LanthaScreen TR-FRET, in vitro test). Type of experiment: biochemical. As to conditions: Fluorescein-Poly GT substrate. On the procedure:
Axl enzyme inhibitory activity was measured by using LanthaScreen (registered trademark) system (Invitrogen) based on the attached instruction. The reagents used are shown below.
Reaction buffer solution: a solution containing 50 mmol/L HEPES (pH7.5), 0.01% Brij35, 10 mmol/L MgCl2 and 1 mmol/L EGTA was prepared by using purified water.
Test substance solution: a solution containing a test compound of 5-fold concentration with respect to the final concentration was prepared by 20-fold diluting a DMSO solution of test compound of each concentration with the reaction buffer solution.
Enzyme solution: a solution containing 400 ng/mL Axl enzyme was prepared by using the reaction buffer solution.
Substrate solution: a solution containing 45 μmol/L ATP and 500 nmol/L Fluorescein-Poly GT (Invitrogen) was prepared by using the reaction buffer solution.
Detection solution: a solution containing 20 mM EDTA and 4 nM PY20 (Invitrogen) was prepared by using Dilution B (Invitrogen).
A 10 mmol/L DMSO solution of the test compound was dispensed into a 96-well plate (Nunc), and, furthermore, a 3-fold dilution series was prepared using DMSO. In each well of the 96-well plate for measurement, 5 μL each of the reaction buffer solution containing DMSO was added to a Blank group and a medium group, and 5 μL of the test substance solution was added to the test substance group, respectively. Next, 10 μL/well of the reaction buffer solution was added to the Blank group, and 10 μL/well each of the enzyme solution was added to the medium group and the test compound group, followed by stirring at room temperature for 10 min. After the completion of stirring, 10 μL each of the substrate solution was added into each well, followed by stirring at room temperature with light shielded for one hour. After the completion of reaction, 25 μL each of the detection solution was added to each well, and stood still at room temperature with light shielded for 30 min. After standing sill, fluorescence intensity at 520 nm and 495 nm at the time of irradiation with exciting light of 340 nm was measured by using Analyst GT (Molecular Devices). The phosphorylation of the artificial substrate was quantified by Time-resolved Fluorescence Resonance Energy Transfer (TR-FRET). TR-FRET ratio was calculated by dividing 520 nm fluorescence signal by 495 nm fluorescence signal for each well, and the inhibition rate (%) in the test compound group was calculated based on the following mathematical formula. Inhibition rate (%)=[1−(TR-FRET ratio of test compound group−A)/(B−A)×100 [Math. 1] A: average value of TR-FRET ratios of Blank group B: average value of TR-FRET ratios of medium group
Values of 50% inhibition rate (IC50 values) of the test compound were calculated from the inhibition curve based on the inhibition rate of the test compounds in each concentration.
Background: Time-resolved FRET reads energy transfer from a long-lived donor to a nearby acceptor.
On to `COc1cc2nccc(Oc3ccc(NC(=O)c4cc5c(n(-c6ccccc6)c4=O)CCCNC5=O)nc3)c2cc1OC` [Example 66, N-{5-[(6,7-dimethoxy-4-quinolinyl)oxy]-2-pyridinyl}-2,5-dioxo-1-phenyl-2,5,6,7,8,9-hexahydro-1H-pyrido[3,2-c]azepine-3-carboxamide], for which the half-maximal inhibitory concentration (IC50) was 1.5 nM.
As for `COc1cc2nccc(Oc3ccc(NC(=O)c4cc5ccncc5n(-c5ccccc5)c4=O)nc3)c2cc1OC` [Example 28, N-{5-[(6,7-dimethoxy-4-quinolinyl)oxy]-2-pyridinyl}-2-oxo-1-phenyl-1,2-dihydro-1,7-naphthyridine-3-carboxamide], the figure is 1.3 nM.
Consider `COc1cc2nccc(Oc3ccc(NC(=O)c4c5c(cn(-c6ccccc6)c4=O)C(=O)CCC5)nc3)c2cc1OC` [Example 42, N-{5-[(6,7-dimethoxy-4-quinolinyl)oxy]-2-pyridinyl}-3,8-dioxo-2-phenyl-2,3,5,6,7,8-hexahydro-4-isoquinolinecarboxamide], for which the IC50 is 3.5 nM.
The same measure for `COc1cc2nccc(Oc3ccc(NC(=O)c4cc(C(C)=O)cn(-c5ccccc5)c4=O)nc3)c2cc1OC` [Example 21, 5-acetyl-N-{5-[(6,7-dimethoxy-4-quinolinyl)oxy]-2-pyridinyl}-2-oxo-1-phenyl-1,2-dihydro-3-pyridinecarboxamide]: 1.5 nM.

The IC50 is the point on the concentration scale where inhibition reaches its midpoint.
